Assays:
[1] = test system: IL-13 induced STAT6 phosphorylation in BEAS-2B human lung epithelial cells; test: AlphaScreen cellular potency assay, IL-13 induced STAT6 phosphorylation in BEAS-2B cells; type: cell-based; conditions: IL-13 induced STAT6 phosphorylation, BEAS-2B cells; for IC50: Homo sapiens, read-out: BEAS-2B pIC50 (converted)
Experimental: The AlphaScreen JAM cellular potency assay was carried out by measuring interleukin-13 (IL-13, R&D Systems) induced STAT6 phosphorylation in BEAS-2B human lung epithelial cells (ATCC). The anti-STAT6 antibody (Cell Signaling Technologies) was conjugated to AlphaScreen acceptor beads (Perkin Elmer), while the anti-pSTAT6 (pTyr641) antibody (Cell Signaling Technologies) was biotinylated using EZ-Link Sulfo-NHS-Biotin (Thermo Scientific).
BEAS-2B cells were grown at 37° C. in a 5% CO2 humidified incubator in 50% DMEM/50% F-12 medium (Life Technologies) supplemented with 10% FBS (Hyclone), 100 U/mL penicillin, 100 μg/mL streptomycin (Life Technologies), and 2 mM GlutaMAX (Life Technologies). On day 1 of the assay, cells were seeded at a 7,500 cells/well density in white poly-D-lysine-coated 384-well plates (Corning) with 25 μL medium, and were allowed to adhere overnight in the incubator. On day 2 of the assay, the medium was removed and replaced with 12 μL of assay buffer (Hank's Balanced Salt Solution/HBSS, 25 mM HEPES, and 1 mg/ml bovine serum albumin/BSA) containing dose-responses of test compounds. Compounds were serially diluted in DMSO and then diluted another 1000-fold in media to bring the final DMSO concentration to 0.1%. Cells were incubated with test compounds at 37° C. for 1 h, and followed by the addition of 12 μl of pre-warmed IL-13 (80 ng/ml in assay buffer) for stimulation. After incubating at 37° C. for 30 min, the assay buffer (containing compound and IL-13) was removed, and 10 μl of cell lysis buffer (25 mM HEPES, 0.1% SDS, 1% NP-40, 5 mM MgCl2, 1.3 mM EDTA, 1 mM EGTA, and supplement with Complete Ultra mini protease inhibitors and PhosSTOP from Roche Diagnostics). The plates were shaken at ambient temperature for 30 min before the addition of detection reagents. A mixture of biotin-anti-pSTAT6 and anti-STAT6 conjugated acceptor beads was added first and incubated at ambient temperature for 2 h, followed by the addition of streptavidin conjugated donor beads (Perkin Elmer). After a minimum of 2 h incubation, the assay plates were read on the EnVision plate reader.
Results were expressed as the negative logarithm of the IC50 value, pIC50.

[2] = test system: IL-13 induced pSTAT6 in lung tissue; test: Murine model of IL-13 induced pSTAT6 induction in lung tissue; type: in vivo; conditions: mouse lung; for inhibition in vivo at 500 µg/mL / pSTAT6 inhibition Assay 5: 0.5 mg/mL, 50 μL oral aspiration, IL-13 challenge 4 h after dosing, lungs collected 1 h later; for inhibition in vivo at 500 µg/mL: read-out: pSTAT6 inhibition Assay 5
Experimental: Il-13 is an important cytokine underlying the pathophysiology of asthma (Kudlacz et al. Eur. J. Pharmacol, 2008, 582, 154-161). IL-13 binds to cell surface receptors activating members of the Janus family of kinases (JAK) which then phosphorylate STAT6 and subsequently activates further transcription pathways. In the described model, a dose of IL-13 was delivered locally into the lungs of mice to induce the phosphorylation of STAT6 (pSTAT6) which is then measured as the endpoint.
Adult balb/c mice from Harlan were used in the assay. On the day of study, animals were lightly anesthetized with isoflurane and administered either vehicle or test compound (0.5 mg/mL, 50 μL total volume over several breaths) via oral aspiration. Animals were placed in lateral recumbency post dose and monitored for full recovery from anesthesia before being returned to their home cage. Four hours later, animals were once again briefly anesthetized and challenged with either vehicle or IL-13 (0.03 μg total dose delivered, 50 μL total volume) via oral aspiration before being monitored for recovery from anesthesia and returned to their home cage. One hour after vehicle or IL-13 administration, lungs were collected for both pSTAT6 detection using an anti-pSTAT6 ELISA (rabbit mAb capture/coating antibody; mouse mAb detection/report antibody: anti-pSTAT6-pY641; secondary antibody: anti-mouse IgG-HRP) and analyzed for total drug concentration as described above in Assay 4.
Selected compounds of the invention were tested in the assay. Activity in the model is evidenced by a decrease in the level of pSTAT6 present in the lungs of treated animals at 5 hours compared to the vehicle treated, IL-13 challenged control animals. The difference between the control animals which were vehicle-treated, IL-13 challenged and the control animals which were vehicle-treated, vehicle challenged dictated the 0% and 100% inhibitory effect, respectively, in any given experiment.

[3] = Pharmacokinetics in plasma and lung in mouse; type: in vivo; conditions: oral aspiration 0.2 mg/mL 50 uL, lung AUC (μg hr/g) / plasma AUC (μg hr/mL)
Experimental: Plasma and lung levels of test compounds and ratios thereof were determined in the following manner. BALB/c mice from Charles River Laboratories were used in the assay. Test compounds were individually formulated in 20% propylene glycol in pH 4 citrate buffer at a concentration of 0.2 mg/mL and 50 uL of the dosing solution was introduced into the trachea of a mouse by oral aspiration. At various time points (typically 0.167, 2, 6, 24 hr) post dosing, blood samples were removed via cardiac puncture and intact lungs were excised from the mice. Blood samples were centrifuged (Eppendorf centrifuge, 5804R) for 4 minutes at approximately 12,000 rpm at 4° C. to collect plasma. Lungs were padded dry, weighed, and homogenized at a dilution of 1:3 in sterile water. Plasma and lung levels of test compound were determined by LC-MS analysis against analytical standards constructed into a standard curve in the test matrix. A lung to plasma ratio was determined as the ratio of the lung AUC in μg hr/g to the plasma AUC in μg hr/mL, where AUC is conventionally defined as the area under the curve of test compound concentration vs. time.

[4] = biological target: JAK2 (Homo sapiens (Human), UniProt O60674)
Chain of JAK2 (O60674 whole entry): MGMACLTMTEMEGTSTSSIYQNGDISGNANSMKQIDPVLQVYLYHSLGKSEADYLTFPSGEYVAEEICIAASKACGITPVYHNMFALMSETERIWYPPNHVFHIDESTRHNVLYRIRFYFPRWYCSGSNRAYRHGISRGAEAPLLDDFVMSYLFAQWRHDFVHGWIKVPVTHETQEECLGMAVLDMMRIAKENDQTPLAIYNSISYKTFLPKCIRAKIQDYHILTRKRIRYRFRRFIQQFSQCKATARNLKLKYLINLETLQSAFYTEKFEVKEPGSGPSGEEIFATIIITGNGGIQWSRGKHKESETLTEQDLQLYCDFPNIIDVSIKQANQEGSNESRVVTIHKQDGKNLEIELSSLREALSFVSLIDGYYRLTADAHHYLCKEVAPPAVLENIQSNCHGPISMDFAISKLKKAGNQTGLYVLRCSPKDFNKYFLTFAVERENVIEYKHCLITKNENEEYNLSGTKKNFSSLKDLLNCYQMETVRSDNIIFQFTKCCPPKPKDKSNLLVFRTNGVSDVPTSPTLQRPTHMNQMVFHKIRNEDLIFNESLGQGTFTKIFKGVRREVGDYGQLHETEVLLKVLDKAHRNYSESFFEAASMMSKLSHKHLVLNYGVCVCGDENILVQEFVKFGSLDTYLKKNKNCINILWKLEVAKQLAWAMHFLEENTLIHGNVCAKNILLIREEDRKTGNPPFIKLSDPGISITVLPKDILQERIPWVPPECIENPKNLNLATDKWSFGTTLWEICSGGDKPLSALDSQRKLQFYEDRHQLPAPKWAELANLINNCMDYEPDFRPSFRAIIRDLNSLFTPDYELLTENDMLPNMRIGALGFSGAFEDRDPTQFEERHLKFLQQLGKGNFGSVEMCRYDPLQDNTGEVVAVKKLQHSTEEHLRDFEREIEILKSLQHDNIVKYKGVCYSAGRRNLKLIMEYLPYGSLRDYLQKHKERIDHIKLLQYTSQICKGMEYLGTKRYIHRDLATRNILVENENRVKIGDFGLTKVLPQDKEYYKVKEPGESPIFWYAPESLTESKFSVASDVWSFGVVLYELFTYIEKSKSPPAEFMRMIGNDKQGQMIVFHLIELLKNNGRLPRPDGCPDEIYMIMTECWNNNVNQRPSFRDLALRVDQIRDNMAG

| SMILES | Lung to Plasma ratio Assay 4 [3] | Ki [4] [nM] | BEAS-2B pIC50 [1] | also measured |
| --- | --- | --- | --- | --- |
| CCc1cc(O)c(F)cc1-c1ccc2c(-c3nc4c([nH]3)CCN(C[C@@H]3COCCN3)C4)n[nH]c2c1 [Example 14, (R)-5-Ethyl-2-fluoro-4-(3-(5-(morpholin-3-ylmethyl)-4,5,6,7-tetrahydro-1H-imidazo[4,5-c]pyridin-2-yl)-1H-indazol-6-yl)phenol] | A (A denotes a ratio >100) | < 0.1 | – | IC50 [1]: < 10 nM; inhibition in vivo at 500 µg/mL [2]: > 65% |
| CCc1cc(O)c(F)cc1-c1ccc2c(-c3nc4c([nH]3)CCN(C3CN(C(C)CC)C3)C4)n[nH]c2c1 (stereo not shown) [Example 4, 4-(3-(5-(1-(sec-butyl)azetidin-3-yl)-4,5,6,7-tetrahydro-1H-imidazo[4,5-c]pyridin-2-yl)-1H-indazol-6-yl)-5-ethyl-2-fluorophenol] | B (B denotes a ratio between 50 and 100) | – | – | IC50 [1]: < 10 nM; inhibition in vivo at 500 µg/mL [2]: > 65% |
| CCc1cc(O)c(F)cc1-c1ccc2c(-c3nc4c([nH]3)CCN(C3CN(CCOC)C3)C4)n[nH]c2c1 [Example 1-6] | – | < 0.1 | A (A represents a pIC50 value ≥8 (IC50≤10 nM)) | – |
| CCc1cc(O)c(F)cc1-c1ccc2c(-c3nc4c([nH]3)CCN(C3CN(CCC#N)C3)C4)n[nH]c2c1 [Example 1-8] | – | < 0.1 | A (A represents a pIC50 value ≥8 (IC50≤10 nM)) | – |
| CCc1cc(O)c(F)cc1-c1ccc2c(-c3nc4c([nH]3)CCN(C3CN(CC)C3)C4)n[nH]c2c1 [Example 1-3] | – | < 0.1 | B (B represents a pIC50 value between 7.4 and 8 (IC50 between 40 nM and 10 nM)) | – |
| CCc1cc(O)c(F)cc1-c1ccc2c(-c3nc4c([nH]3)CCN(C3CCNC3)C4)n[nH]c2c1 (stereo not shown) [Example 9-1] | – | < 0.1 | B (B represents a pIC50 value between 7.4 and 8 (IC50 between 40 nM and 10 nM)) | – |
| CCc1cc(O)c(F)cc1-c1ccc2c(-c3nc4c([nH]3)CCN(C3CCNCC3)C4)n[nH]c2c1 [Example 2-3] | – | < 0.1 | B (B represents a pIC50 value between 7.4 and 8 (IC50 between 40 nM and 10 nM)) | – |
| CCc1cc(O)c(F)cc1-c1ccc2c(-c3nc4c([nH]3)CCN(CCN3CCCC3)C4)n[nH]c2c1 [Example 16, 5-Ethyl-2-fluoro-4-(3-(5-(2-(pyrrolidin-1-yl)ethyl)-4,5,6,7-tetrahydro-1H-imidazo[4,5-c]pyridin-2-yl)-1H-indazol-6-yl)phenol] | – | < 0.1 | – | IC50 [1]: < 10 nM |
| CCc1cc(O)c(F)cc1-c1ccc2c(-c3nc4c([nH]3)CCN(CCN(C)CC(C)C)C4)n[nH]c2c1 [Example 3-33] | A (A denotes a ratio >100) | – | – | pSTAT6 inhibition Assay 5 [2]: C (C represents between 33% and 50% inhibition) |
| CCc1cc(O)c(F)cc1-c1ccc2c(-c3nc4c([nH]3)CCN(C3CN(CC5CC5)C3)C4)n[nH]c2c1 [Example 1-18] | B (B denotes a ratio between 50 and 100) | – | – | pSTAT6 inhibition Assay 5 [2]: C (C represents between 33% and 50% inhibition) |
| CCc1cc(O)c(F)cc1-c1ccc2c(-c3nc4c([nH]3)CCN(C3CN(CC(C)C)C3)C4)n[nH]c2c1 [Example 1-11] | C (C denotes a ratio between 10 and 50) | – | – | pSTAT6 inhibition Assay 5 [2]: C (C represents between 33% and 50% inhibition) |
| CCc1cc(O)c(F)cc1-c1ccc2c(-c3nc4c([nH]3)CCN(CCNC3(C#N)CC3)C4)n[nH]c2c1 [Example 3-1] | – | – | – | pSTAT6 inhibition in the pharmacodynamic assay [2]: exceptions |
| CCc1cc(O)c(F)cc1-c1ccc2c(-c3nc4c([nH]3)CCN(C3CN(CCO)C3)C4)n[nH]c2c1 [Example 1-1] | – | < 0.1 | B (B represents a pIC50 value between 7.4 and 8 (IC50 between 40 nM and 10 nM)) | – |
| CCc1cc(O)c(F)cc1-c1ccc2c(-c3nc4c([nH]3)CCN(C3CN(CCCOC)C3)C4)n[nH]c2c1 [Example 1-7] | B (B denotes a ratio between 50 and 100) | – | – | pSTAT6 inhibition Assay 5 [2]: C (C represents between 33% and 50% inhibition) |
| CCc1cc(O)c(F)cc1-c1ccc2c(-c3nc4c([nH]3)CCN(C3CN(C5CCS(=O)(=O)C5)C3)C4)n[nH]c2c1 (stereo not shown) [Example 1-15] | – | – | – | pSTAT6 inhibition in the pharmacodynamic assay [2]: exceptions |
